We go through one molecule from patent US11291646B2, “Nozzle assembly and methods for use” (CRITITECH, INC., priority 2015, dated 2022).

The series is described as follows: Bulk density. The conditions noted are these: docetaxel; room temperature. In kind it is physicochemical. As to the method:
The mass of the drug was measured to a nearest 0.1 mg, the volume was determined to the nearest 0.1 mL and the density calculated.

With `CC(=O)O[C@@]12CO[C@@H]1C[C@H](O)[C@@]1(C)C(=O)[C@H](O)C3=C(C)[C@@H](OC(=O)[C@H](O)[C@@H](NC(=O)OC(C)(C)C)c4ccccc4)C[C@@](O)([C@@H](OC(=O)c4ccccc4)[C@H]21)C3(C)C` [Docetaxel Raw Material, docetaxel], the “Bulk Density” value is 0.24 g/cm3.
